In patent US20040220084A1, “Methods for nucleic acid delivery” (priority 2003, published 2004):

Assays:
JJ5 Breast Cancer cells [1] = test: Growth inhibition assay against JJ5 breast cancer cells; assay type: cell-based, human; conditions: 4 days culture
Procedure: JJ5 breast cancer cells (prepared from BCBM JJ5) expressing approximately 10^6 epidermal growth factor receptors/cell were incubated with EGF-^111In-labeled transferrin composition, unlabeled hEGF or ^111In-oxine, centrifuged to remove free ligand, then assayed and seeded (10^6 cells/dish) into 35 mm culture dishes. Growth medium was added and the cells were cultured at 37° C./5% CO^2 for 4 days. The cells were then recovered by trypsinization and counted in a hemocytometer. Control dishes contained cells cultured in growth medium containing ^111In-DTPA or growth medium alone.

JJ5 Breast Cancer cells [2] = test: Cytotoxicity (colony-forming) assay against JJ5 breast cancer cells; assay type: cell-based, human; conditions: 14 days
Procedure: JJ5 breast cancer cells were incubated with increasing amounts EGF-^111In-labeled transferrin composition or ^111In-oxine, centrifuged to remove free ligand, assayed and then seeded into 50 mm culture dishes. The number of cells seeded was varied from 3×10^4 to 3×10^6 cells to obtain approximately 400 viable colonies/dish taking into account the plating efficiency and the expected level of cytotoxicity. Control dishes contained JJ5 breast cancer cells which were incubated with normal saline. Growth medium was added and the cells were cultured at 37° C./5% CO^2 for 14 days. The growth medium was removed and the colonies were stained with methylene blue (1% in a 1:1 mixture of ethanol and water) then washed twice. The number of colonies per dish was counted using a manual colony counter (Manostat Corp). The plating efficiency was calculated by dividing the number of colonies observed by the number of cells seeded in each dish. The surviving fraction at increasing amounts of EGF-^111In-labeled transferrin composition or ^111In-oxine was calculated by dividing the plating efficiency for dishes containing treated cells with that observed for control dishes with normal saline.

JJ5 Breast Cancer cells [3] = test: Binding of EGF-111In-labeled transferrin composition to JJ5 breast cancer cells (radioligand binding, kinetics, internalization); set-up: species or system human
Procedure: For the normal breast cell line HBL-100, 8000 EGFR/cell has been reported. The expression of EGFR in breast cancer cell lines has a reported range of 800 EGFR/cell for MCF-7 cells to 10^6 EGFR/cell for MDA-MB-468 cells. […] Utilizing the Auger electron emitter ^111In was used in the initial experiments to illustrate the utility of the invention using EGF-111In-labeled transferrin compositions. The EGF-^111-In-labeled transferrin (0.25-80 ng) was incubated with 1.5×10^6 cells/dish JJ5 Breast Cancer (prepared from BCBM JJ5) cells in 1 mL of 0.1% human serum albumin in 35 mm multiwell culture dishes at 37° C. for 30 minutes. The cells were transferred to a centrifuge tube and centrifuged. The cell pellet was separated from the supernatant and counted in a g-scintillation counter to determine bound (B) and free (F) radioactivity. Non-specific binding was determined by conducting the assay in 100 nM hEGF. The kinetics of binding was determined by incubating 1 ng of EGF-^111In-labeled transferrin composition with 3×10^6 JJ5 Breast Cancer cells at 37° C. and determining the proportion of radioactivity bound to the cells at various times up to 24 hours. Internalized fraction was measured by determining the proportion of radioactivity which could not be displaced from the cell surface by 100 nM hEGF. Cell-associated binding (surface-binding and intracellular accumulation) was expressed as a percentage of medium radioactivity bound per mg of cell study protein.

Compound	growth inhibition of the JJ5 cells (JJ5 Breast Cancer cells [1]; 3.5 pCi/cell) [%]	cell killing (JJ5 Breast Cancer cells [2]; <6 pCi/cell)	internalization by cancer cells (in words) (JJ5 Breast Cancer cells [3]; JJ5 cells)	binding by the breast cancer cells (kinetics, in words) (JJ5 Breast Cancer cells [3]; JJ5 cells, 37° C.)	retained by the breast cancer cells (JJ5 Breast Cancer cells [3]; JJ5 cells, 37° C.)	affinity constant for binding to JJ5 cells (JJ5 Breast Cancer cells [3]; JJ5 cells, 37° C., 30 minutes) [L/mol]	111In radioactivity lost from the cells in vitro (JJ5 Breast Cancer cells [3]; over a 24 hour period at 37° C.) [%]	growth inhibition of the JJ5 cells compared to the medium control (JJ5 Breast Cancer cells [1]; 3.4 pCi/cell) [%]	reduction in cell survival for JJ5 cells (JJ5 Breast Cancer cells [2]; 8 pCi/cell) [%]
[In+3].[O-]c1cccc2cccnc12.[O-]c1cccc2cccnc12.[O-]c1cccc2cccnc12 [^111In-oxine, reference compound]	91	greater than 99%	–	–	–	–	–	–	–
EGF-^111In-labeled transferrin composition: human EGF linked to human transferrin radiolabeled with Auger electron emitter 111In at the iron-binding sites	–	–	rapidly internalized	rapidly bound	at least 24 hours	8e+08	< 8	83	99
